Data set [1] has as its system HeLa cells. Nature of the data set: Cellular uptake by flow cytometry. It counts as cell-based. The settings on record: 1 µM CF-labeled peptide, serum-free medium, 30 min, 37 °C, triplicate, n = 3. How it is done:
HeLa cells were seeded onto 24-well plates (Sarstedt, Nümbrecht, Germany, 100,000 cells per well, respectively). After reaching 80–90% confluency, medium was removed, and cells were incubated with 1 µM CF-labeled peptide solution in serum-free medium for either 30 min or 2 h at 37 °C. The peptide solution was removed, cells were washed twice with PBS, and trypsinized for 5 min. Detached cells were resuspended in full medium (phenol red free) and afterwards analyzed using a guava easycyte HT flow cytometer (Merck, Darmstadt, Germany).
Background: Flow cytometry measures light scatter and fluorescence of single cells or particles in a stream.

Data set [2] can be described thus: Circular dichroism spectroscopy (alpha-helical content, R-value). In kind it is physicochemical. The settings on record: for % of alpha helix, 50% TFE / % of alpha helix, Phosphate Buffer: CD, calculated per ref 31; for % of alpha helix, 50% TFE: 20 µM peptide in 10 mM phosphate buffer (pH 7.0) with 50% TFE (v/v); for % of alpha helix, Phosphate Buffer / R-value, Phosphate Buffer: 20 µM peptide in 10 mM phosphate buffer (pH 7.0); for R-value, Phosphate Buffer / R-value, 50% TFE: ratio between the molar ellipticity values at 222 and 208 nm; for R-value, 50% TFE: 20 µM peptide in 10 mM phosphate buffer (pH 7.0) with 50% TFE. Here is the method:
Conjugates were dissolved in 10 mM phosphate buffer (pH 7.0), either alone or supplemented with 50% TFE (v/v), to a final concentration of 20 µM. CD spectra of all conjugates were recorded from 180–260 nm (0.5 nm intervals) on a J-715 spectropolarimeter (JASCO, Pfungstadt, Germany) in an N2 atmosphere.
To find out more, we performed CD spectroscopy for all peptides solved either in phosphate buffer or in phosphate buffer supplemented with trifluoroethanol (TFE), respectively. All conjugates and sC18 adopted an alpha-helix, when present in phosphate buffer with TFE (Figure S20). On the other hand, when CB-conjugates were solved in phosphate buffer only (Figure 1C), some of them directly formed distinct secondary structures. […] Taking this observation into account, we concluded that the number of CB moieties actually promoted the formation of alpha-helical structures. This effect might be further explained by the helical wheel projection of each conjugate showing that the hydrophobic face of the peptide was clearly enlarged when three or more CB units were attached (see Figure S21). […]

Data set [3] can be described thus: CF-leakage assay, zwitterionic LUVs. The settings on record: 1 µM peptide, 25 °C, 90 min; fluorescence, normalized to Triton x-100; duplicate, n = 2. How it is done: (§1) Large unilamellar vesicles (LUVs) were prepared by dissolving different lipids in CHCl3, to reach the desired compositions (lipids were purchased from Avanti Polar Lipids, Inc., Alabaster, AL, USA). To remove the solvent, the mixture was placed into a round-bottomed flask on ice and the solvent was evaporated under reduced pressure for 20 min at 40 °C and afterwards under vacuum for another 5 min. The dried lipid film was then hydrated with HKS buffer (25 mM HEPES, 150 mM KCl, pH 7.4, 10% sucrose (w/v)), supplemented with 100 mM 5(6)-carboxyfluorescein (CF), and homogenized for 5 min at 45 °C to form liposomes (final concentration: 8 mM). The resulting multilamellar vesicle dispersion underwent 10 freeze/thawing cycles and was passed 21 times through a mini extruder (0.4 µm polycarbonate treck-etch membrane; Avanti Polar Lipids, Inc., Alabaster, AL, USA). External CF was removed by size exclusion chromatography (PD10 column, GE Healthcare, Chicago, IL, USA). Peptides were added to the LUVs and the CF release was monitored by measuring the increased fluorescence intensity on a plate reader (Biotek, Winooski, VT, USA). […]
(§2) Our results thus far inspired us to investigate how the novel CB-conjugates would perform in a lipid environment. […] Both lipid systems were additionally loaded with CF in order to monitor membrane leakage via fluorescence dye outflow.

A short description of data set [4]: Critical micelle concentration (CMC) determination by UV-VIS. To be noted: peptide in water, 1–200 µM; UV absorbance at 255 nm plotted against logarithm of peptide concentration, intersection point of two lines. It counts as physicochemical. Here is the method:
Peptide conjugates were dissolved in water and different concentrations (1–200 µM) were prepared. UV-VIS spectra ranging from 200–700 nm were recorded using a 1 cm path length quartz cuvette in a Spectroquant Pharo 300 photometer (Merck, Darmstadt, Germany). The absorbance at 255 nm was plotted against the logarithm of the peptide concentration. The intersection point of two lines was determined as CMC.
Since this effect was obviously dependent on the hydrophobic nature of the conjugates, we were then interested in whether they would also self-assemble and form nanostructures, such as micelles or fibrils. An easy to apply and fast method makes use of changes in spectroscopic properties associated with micelle formation. For this, one measures the UV absorbance at a specific wavelength as a function of the concentration. Because aggregates like micelles and free molecule species contribute to a different extent to the absorbed UV light, an abrupt change of the slope occurs above a certain point. The corresponding concentration is defined as the critical micelle concentration (CMC). We measured the UV-VIS spectra of all CB-sC18 conjugates and observed for all an additional concentration-dependent maximum at 255 nm (Figure 1A,B and Table 2), whereas this maximum was not detected for meta-carborane-1-carboxylic acid (Figure S14) or sC18 alone (Figure S15).
Thus, we hypothesized this maximum as evidence for a possible self-assembly, and by plotting the absorbance at 255 nm against the logarithm of the peptide concentration, we assigned the intersection point as CMC.

Data set [5] can be described thus: CF-leakage assay, negatively charged LUVs. The settings on record: 1 µM peptide, 25 °C, 90 min; fluorescence, normalized to Triton x-100; duplicate, n = 2. How it is done:
as §1, §2

Another data set relates to human red blood cells. Nature of the data set: Hemolysis assay. To be noted: human RBCs 5% (v/v in PBS), 37 °C, up to 25 µM peptide, absorption at 560 nm, normalized to Triton-x-100 control, triplicate, n = 2. It counts as cell-based. How it is done: Human red blood cells were washed five times with PBS (4 °C, 3000× g, 5 min) and diluted to 5% (v/v in PBS). In total, 100 µL of this solution were transferred into a fresh 96-well plate. In total, 50 µL of peptide solution were added and gently resuspended. Red blood cells were incubated for either 1 or 24 h at 37 °C and 5% CO2, respectively. In total, 50 µL of 10% Triton-x-100 were added 10 min prior to the end of the incubation time and served as a positive control. After incubation, cells were centrifuged (r.t., 2500× g, 3 min). The supernatant was carefully transferred into a fresh 96-well plate and the absorption at 560 nm was measured on a Tecan infinite M200 plate reader (Tecan Group AG, Männedorf, Switzerland). The measured absorption referred to the hemoglobin concentration.
Next, we incubated human red blood cells (RBCs) with different concentrations of CB-sC18 conjugates at 37 °C for 1 or 24 h, respectively. Since their cell membranes are mainly composed of neutral lipids, RBCs serve as an excellent biological model for the lytic activity of a peptide. […] For sC18, this agreed with the detected low activity when in contact with zwitterionic LUVs. […] The same activity profile was observed when incubating peptide conjugates with RBCs for only one hour (Figure S30), whereas the effects started at concentrations higher than 5 µM. […]

The subject of data set [6] is HeLa cells. Nature of the data set: Cell viability assay (resazurin). It counts as cell-based. To be noted: 37 °C, serum-free medium, 125 nM–100 µM, relative to untreated cells. Here is the method: In total, 17.000 HeLa cells per well were seeded onto 96-well plates (Sarstedt, Nümbrecht, Germany). After confluency of 80–90% was reached, the growth medium was removed, and cells were incubated with 100 µL of peptide solution of different concentrations (125 nM–100 μM in serum-free medium) for 24 h at 37 °C. For a positive control, cells were treated with 70% EtOH for 10 min. Cells were washed with serum-free medium and incubated with 10% (v/v) resazurin (Sigma-Aldrich, Merck group: Darmstadt, Germany) in serum-free medium for 1.5 h at 37 °C. Cell viability was determined by measurement of the resorufin product at 595 nm (λex = 550 nm) on a Tecan infinite M200 plate reader (Tecan Group AG, Männedorf, Switzerland). Viability was calculated from the fluorescence values of treated cells in relation to untreated cells.
For orientation: Resazurin is reduced to fluorescent resorufin, in cell work by metabolically active cells.

Regarding “CB-KKKK-GLRKRLRKFRNKIKEK [CB5-sC18, sC18 conjugate bearing five meta-carborane clusters]”, the “Cellular uptake into HeLa cells, 30 min” value with HeLa cells [1] was “decreased again”. In addition, in data set [2], the “% of alpha helix, 50% TFE” value is 50.15%; the “% of alpha helix, Phosphate Buffer” value was 21.09%; the “R-value, Phosphate Buffer” value came to 0.87; the “R-value, 50% TFE” value is reported as 0.92. Also, the “CF release (leakage) from zwitterionic LUVs” value in data set [3] is “same leakage profile as CB1-sC18”. The substance further displayed a CMC in data set [4] of 44.37 ± 1.16 µM. The “CF release (leakage) from negatively charged LUVs” value in data set [5] was “increased outflow of CF”.
“CB‐KKKK‐LLIILRRRIRKQAHAHSK [CB5-pVEC, pVEC conjugate bearing five meta-carborane clusters]”: in data set [2], the “% of alpha helix, 50% TFE” value is on record as 45.48%; the “% of alpha helix, Phosphate Buffer” value is reported as 22.96%; the “R-value, Phosphate Buffer” value is given as 0.79; the “R-value, 50% TFE” value is reported as 0.79.
For “KK-GLRKRLRKFRNKIKEK [CB2-sC18, sC18 conjugate bearing two meta-carborane clusters]”, in data set [2], the “% of alpha helix, 50% TFE” value is 60.49%; the “% of alpha helix, Phosphate Buffer” value is 5.45%; the “R-value, 50% TFE” value was 0.89. The “Hemolytic activity towards RBCs, 24 h” value in the data set on human red blood cells was “able to lyse RBCs”.
Consider “KKK-GLRKRLRKFRNKIKEK [CB3-sC18, sC18 conjugate bearing three meta-carborane clusters]”, for which, in data set [2], the “% of alpha helix, 50% TFE” value was 56.10%; the “% of alpha helix, Phosphate Buffer” value was 16.68%; the “R-value, Phosphate Buffer” value is recorded as 0.56; the “R-value, 50% TFE” value worked out at 0.88. In data set [4], this substance registered a CMC of 44.46 ± 1.14 µM.
Consider “KKKK‐LLIILRRRIRKQAHAHSK [CB4-pVEC, pVEC conjugate bearing four meta-carborane clusters]”, for which, in data set [2], the “% of alpha helix, 50% TFE” value is 59.84%; the “% of alpha helix, Phosphate Buffer” value is 22.59%; the “R-value, Phosphate Buffer” value amounted to 0.92; the “R-value, 50% TFE” value turned out to be 0.84.
On the same counts, the results for “KKK‐LLIILRRRIRKQAHAHSK [CB3-pVEC, pVEC conjugate bearing three meta-carborane clusters]” are 65.76%, 16.98%, 0.99 and 0.82.
For the substance “KK‐LLIILRRRIRKQAHAHSK [CB2-pVEC, pVEC conjugate bearing two meta-carborane clusters]”, in data set [2], the “% of alpha helix, 50% TFE” value is given as 51.36%; the “% of alpha helix, Phosphate Buffer” value is 20.41%; the “R-value, Phosphate Buffer” value is reported as 0.84; the “R-value, 50% TFE” value amounted to 0.82.
In the case of “K‐LLIILRRRIRKQAHAHSK [CB1-pVEC, pVEC conjugate bearing one meta-carborane cluster]”, in data set [2], the “% of alpha helix, 50% TFE” value is 44.28%; the “% of alpha helix, Phosphate Buffer” value was 17.72%; the “R-value, Phosphate Buffer” value is 0.57; the “R-value, 50% TFE” value amounted to 0.82.
As for “LLIILRRRIRKQAHAHSK [pVEC, VE-cadherin-derived cell-penetrating peptide, reference compound]”, in data set [2], the “% of alpha helix, 50% TFE” value is reported as 48.60%; the “% of alpha helix, Phosphate Buffer” value is 12.18%; the “R-value, Phosphate Buffer” value stood at 0.37; the “R-value, 50% TFE” value is given as 0.73.
On to “meta-carborane-1-carboxylic acid [reference compound]”, for which, in the data set with HeLa cells [6], the “Cytotoxicity towards HeLa cells, 24 h” value is “nearly no cytotoxicity”.

The values above are taken from publication PMC8709211, “Improving Membrane Activity and Cargo Delivery Efficacy of a Cell-Penetrating Peptide by Loading with Carboranes” (Pharmaceutics, 2021).
